According to publication PMC11283233, “A comparative analysis of NADPH supply strategies in Saccharomyces cerevisiae: Production of D-xylitol from D-xylose as a case study” (Metabolic Engineering Communications, 2024):

Tests used:
[1] = target: T1, Zwf1 (glucose-6-phosphate dehydrogenase) (Saccharomyces cerevisiae, UniProt P11412, DEL59-59); test: NADP+ reduction at […] nm, crude extract of overexpressing strain PRY48 (ZWF1*); assay type: biochemical; conditions: 2.5 mM glucose-6-phosphate, 0.67 mM NADP+, 50 mM imidazole pH 7.0, 100 mM KCl, 10 mM MgCl2, 0.1 mM EDTA
T1 construct: full-length, untagged; overexpressed from truncated HXT7 promoter at the genomic ZWF1 locus; crude yeast extract
T1 sequence (P11412 with tags, fused parts or gaps DEL59-59): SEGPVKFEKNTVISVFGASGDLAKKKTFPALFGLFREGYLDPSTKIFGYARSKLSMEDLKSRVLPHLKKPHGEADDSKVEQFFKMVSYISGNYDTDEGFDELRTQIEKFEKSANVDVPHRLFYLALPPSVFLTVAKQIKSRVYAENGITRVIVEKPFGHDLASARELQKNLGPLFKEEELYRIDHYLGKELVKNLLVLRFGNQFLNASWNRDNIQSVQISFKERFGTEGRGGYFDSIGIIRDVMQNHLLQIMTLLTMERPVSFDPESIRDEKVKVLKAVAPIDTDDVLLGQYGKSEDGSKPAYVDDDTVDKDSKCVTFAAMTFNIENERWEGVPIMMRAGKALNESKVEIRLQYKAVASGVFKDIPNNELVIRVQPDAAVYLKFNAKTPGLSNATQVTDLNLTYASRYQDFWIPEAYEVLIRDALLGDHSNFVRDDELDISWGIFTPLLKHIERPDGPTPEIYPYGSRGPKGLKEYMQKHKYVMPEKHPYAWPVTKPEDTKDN

[2] = target: T2, Zwf1 (glucose-6-phosphate dehydrogenase) (Saccharomyces cerevisiae, UniProt P11412); test: NADP+ reduction at […] nm, crude extract of overexpressing strain PRY63; assay type: biochemical; conditions: 2.5 mM glucose-6-phosphate, 0.67 mM NADP+, 50 mM imidazole pH 7.0, 100 mM KCl, 10 mM MgCl2, 0.1 mM EDTA
T2 construct: full-length, untagged; overexpressed from truncated HXT7 promoter at the genomic ZWF1 locus; crude yeast extract
T2 sequence (P11412 2-505): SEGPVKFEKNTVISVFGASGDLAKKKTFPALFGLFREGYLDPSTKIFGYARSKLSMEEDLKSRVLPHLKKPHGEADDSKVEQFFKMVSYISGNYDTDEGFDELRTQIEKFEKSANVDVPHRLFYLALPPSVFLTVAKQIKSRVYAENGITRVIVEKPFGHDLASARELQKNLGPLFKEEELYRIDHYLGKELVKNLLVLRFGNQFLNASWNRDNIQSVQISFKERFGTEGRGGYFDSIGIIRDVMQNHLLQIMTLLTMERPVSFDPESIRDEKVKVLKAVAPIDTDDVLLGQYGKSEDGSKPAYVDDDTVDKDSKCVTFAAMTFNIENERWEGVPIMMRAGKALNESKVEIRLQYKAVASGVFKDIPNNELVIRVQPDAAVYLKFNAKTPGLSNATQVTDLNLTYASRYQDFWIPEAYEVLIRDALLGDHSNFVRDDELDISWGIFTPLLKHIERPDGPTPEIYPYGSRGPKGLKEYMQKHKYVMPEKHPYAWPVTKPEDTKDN

[3] = target: T3, Gre3 (coGRE3, ScGRE3) (Saccharomyces cerevisiae, UniProt P38715); test: xylitol formation in cells, HPLC, versus empty vector; assay type: cell-based; conditions: whole-cell fermentation, SC medium, 30 g/L glucose, 20 g/L xylose, 30 °C; NADPH-dependent
T3 construct: full-length, codon-optimized or native gene on p425H7, expressed in S. cerevisiae PRY39 (gre3 deleted); intact cells
T3 sequence (P38715 2-327): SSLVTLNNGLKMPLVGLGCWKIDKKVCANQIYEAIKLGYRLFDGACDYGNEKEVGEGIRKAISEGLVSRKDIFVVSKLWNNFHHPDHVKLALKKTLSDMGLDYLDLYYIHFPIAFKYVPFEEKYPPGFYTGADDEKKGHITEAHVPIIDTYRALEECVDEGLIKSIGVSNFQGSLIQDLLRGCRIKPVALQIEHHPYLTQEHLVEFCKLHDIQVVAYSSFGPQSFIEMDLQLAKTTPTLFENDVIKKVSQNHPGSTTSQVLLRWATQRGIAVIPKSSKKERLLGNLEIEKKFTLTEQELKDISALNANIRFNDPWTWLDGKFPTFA

[4] = target: T4, Xyl1 (coXYL1) (Scheffersomyces stipitis, UniProt P31867); test: as above; assay type: cell-based; conditions: whole-cell fermentation, SC medium, 30 g/L glucose, 20 g/L xylose, 30 °C; NADPH-dependent
T4 construct: full-length, codon-optimized gene on p425H7, expressed in S. cerevisiae PRY39 (gre3 deleted); intact cells
T4 sequence (P31867 1-318): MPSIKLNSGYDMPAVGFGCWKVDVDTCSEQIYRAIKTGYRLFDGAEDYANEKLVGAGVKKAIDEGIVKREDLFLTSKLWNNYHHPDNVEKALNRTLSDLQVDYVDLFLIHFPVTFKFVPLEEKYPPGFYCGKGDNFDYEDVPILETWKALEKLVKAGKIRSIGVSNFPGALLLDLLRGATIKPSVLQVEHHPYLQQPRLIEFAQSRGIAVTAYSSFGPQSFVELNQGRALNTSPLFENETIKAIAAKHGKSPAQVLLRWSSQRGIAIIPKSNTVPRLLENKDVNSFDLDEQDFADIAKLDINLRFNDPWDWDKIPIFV

Row | SMILES | NADP+ reduction at 340 nm, crude extract of overexpressing strain PRY48 (ZWF1*) [1] | NADP+ reduction at 340 nm, crude extract of overexpressing strain PRY63 [2] | xylitol formation in cells, HPLC, versus empty vector [3] | xylitol formation in cells, HPLC, versus empty vector [4]
1 | NC(=O)c1ccc[n+]([C@@H]2O[C@H](COP(=O)(O)OP(=O)(O)OC[C@H]3O[C@@H](n4cnc5c(N)ncnc54)[C@H](OP(=O)(O)O)[C@@H]3O)[C@@H](O)[C@H]2O)c1 [NADP^+] | the deletion of Glu59 apparently led to a higher Zwf1 activity | The reduction of NADP^+ was recorded by continuously measuring the change of the absorbance |  | 
2 | O=P(O)(O)OC[C@H]1OC(O)[C@H](O)[C@@H](O)[C@@H]1O (some centres unmarked) [glucose-6-phosphate] |  | A G6PDH assay was performed in crude extracts from the engineered strains |  | 
3 | OC1OC[C@@H](O)[C@H](O)[C@H]1O (some centres unmarked) [xylose] |  |  | The expression of all XR constructs led to considerably high xylitol titers | The expression of all XR constructs led to considerably high xylitol titers
